From the NIST ThermoML archive (doi:10.1016/j.fluid.2013.06.021)
± gives the expanded uncertainty stated by the source.

Conditions: 298.15 K, 101.33 kPa, Liquid; for viscosity: Capillary tube (Ostwald / Ubbelohde) method; for speed of sound: Sing-around technique in a fixed-path interferometer; for mass density: Vibrating tube method

## CCCCO [butan-1-ol]
  viscosity: 2.625 ± 0.12 mPa·s
  speed of sound: 1240.6 ± 0.71 m/s
  mass density: 805.986 ± 0.12 kg/m3

## CCC(C)O (stereo not given) [butan-2-ol]
  viscosity: 3.075 ± 0.12 mPa·s
  speed of sound: 1213.3 ± 0.81 m/s
  mass density: 802.563 ± 0.14 kg/m3

## CC(C)O [propan-2-ol]
  viscosity: 2.111 ± 0.12 mPa·s
  speed of sound: 1140.6 ± 0.64 m/s
  mass density: 781.588 ± 0.12 kg/m3

## CCCO [propan-1-ol]
  viscosity: 1.984 ± 0.12 mPa·s
  speed of sound: 1207 ± 0.8 m/s
  mass density: 800.13 ± 0.14 kg/m3

## CCCCOCCO [2-butoxyethan-1-ol]
  viscosity: 2.885 ± 0.12 mPa·s
  speed of sound: 1306 ± 0.7 m/s
  mass density: 896.312 ± 0.083 kg/m3
